From patent US12048720B2, “Compositions comprising bacterial strains” (CJ BIOSCIENCE, INC., priority 2017, dated 2024)

Tested on: SH-SY5Y neuroblastoma cells
Assay: Neuroprotection / cell viability of differentiated SH-SY5Y neuroblastoma cells with or without MPP (CCK-8)
Assay type: cell-based, human
Conditions: RA-differentiated SHSY-5Y cells treated with MPP+, FIG. 11
Method: Neuroblastoma cells were treated with compositions comprising bacterial strains according to the invention. The SH-SY5Y neuroblastoma cells used are dopamine producing and well-established as an in vitro model for studying neurodegenerative diseases. The ability of the bacterial strains to increase neuroproliferation was observed. The neuroblastoma cells were treated also treated dopaminergic neurotoxin 1-methyl-4-phenylpyridinium (MPP), which induces permanent symptoms of Parkinson's disease in neuroblastoma cells. The ability of the bacterial strains to act as a neuroprotectant against MPP was investigated.
SH-SY5Y neuroblastoma cells were purchased from ECCACC (Cat. no: 94030304) and were grown in MEM (Sigma Aldrich, cat n. M2279) supplemented with Nutrient Mixture F-12 Ham (Sigma Aldrich, cat n. N4888).
Once grown the SH-SY5Y neuroblastoma cells were plated on 96-well plate at 11,000 cells/well and incubated for 2 days. […] Cell viability was measured by using CCK-8 reagent (Sigma Aldrich, Cell Counting Kit—8, cat. n. 96992-3000TESTS-F) and read at 450 nm wavelength.
RA-differentiated SHSY-5Y cells were treated with MPP+, the active metabolite of MPTP, a chemical widely used to mimic in vitro and in vivo some of the features of PD pathology. Cell viability was measured as the rate of mitochondria respiration (FIG. 11).

SMILES: O=c1c(O)c(-c2ccc(O)c(O)c2)oc2cc(O)cc(O)c12 [quercetin]
- protection compared to YCFA-MPP+ treated sample: about 20%
